Like-named read-outs stand apart in the source and are kept apart here.
Legend:
MAPKAPK2 [1] = biological target: MAPKAPK2 (Homo sapiens, UniProt P49137); assay: TPP-TR in living HL-60 cells; assay type: cell-based; conditions: 20 μM, single set (no replicates)
Description: (§1) HL-60 cells (ATCC No. CCL-240) were expanded to about […] in 80 mL cell culture medium (RPMI-1640 supplemented with 10% (v/v) FBS, 1% (v/v) penicillin-streptomycin and 1% (v/v) L-glutamine solution) and divided into four aliquots (20 mL each, 25 million cells per flask). […] The same volume of DMSO was added to the remaining aliquot serving as the vehicle (DMSO) control. After incubation (1 h, 37 °C, 5% CO2, in cell culture CO2 incubator), the cell suspensions were transferred into 50 mL conical tubes, cell number and viability were determined, and after centrifugation (300 relative centrifugal force (rcf), 3 min, room temperature (r.t.)), the supernatants were completely removed and discarded. The cells were washed using 20 mL Dulbecco’s phosphate-buffered saline (PBS), respectively, by resuspension and centrifugation (300 rcf, 3 min, r.t.). After the complete removal of the supernatants, the cells were transferred into pre-weighed 2 mL Eppendorf tubes using 0.5 mL PBS (r.t.), respectively, for resuspending. After centrifugation (300 rcf, 3 min, r.t.) and removing as much as possible of the supernatants, the cell wet weights were determined.
(§2) The suspensions were shortly centrifuged (1 s or less) using a benchtop centrifuge that was equipped with an inset for PCR tubes to release trapped air and to achieve an even liquid level without pelleting the cells. The 100 µL cell suspensions were then temperature treated by a 7 min pre-incubation at r.t., a 3 min incubation at the following different temperatures in the PCR cycler (DNA Engine Tetrad 2, lid temperature 70 °C, gradient block 1: 36–55 °C, gradient block 2: 48–67 °C), and a 3 min post-incubation at r.t. in a metal heating block for uniform heat dissipation.
(§3) The cells were lysed by four freeze/thaw cycles consisting of thawing the samples (in a heat block set to 25 °C and shaking at 1250 rpm) accompanied by mixing them several times by inversion and then shock freezing them again in liquid nitrogen. The resulting lysates were kept cold (on ice or 4 °C) from then on. After centrifugation (20,000 rcf, 30 min, 4 °C) to pellet the cell debris together with precipitated and aggregated proteins, the supernatants were recovered and, after determining the total protein concentration (Pierce 660 nm Protein Assay, BSA as standard), the resulting cell extracts containing the fraction of soluble, non-denatured proteins were shock frozen in liquid nitrogen and stored at −80 °C.
(§4) For each sample set comprising ten temperature range samples, the same volume of the cell extracts containing the fraction of soluble, non-denatured proteins was used for further analysis. Volume calculation for 30 µg total protein was performed as described for SDS-PAGE and immunoblotting. The calculated volume was respectively transferred into 0.5 mL LoBind Eppendorf tubes and evaporated to dryness using vacuum centrifugation (SpeedVac concentrator, Eppendorf, Hamburg, Germany). The dried proteins were each reconstituted in 10 µL of SDS sample buffer (containing DTT) and incubated for 30 min at 50 °C with shaking (700 rpm). 1.111 µL 1 M iodoacetamide (IAA) was added to each sample (final 100 mM IAA), then the samples were mixed and incubated for 30 min at r.t. in the dark. Sample quality was controlled by SDS-PAGE/silver staining using 0.926 µL of each sample (2.5 µg on average for the two lowest temperature samples; 26-well 4–12% Bis-Tris polyacrylamide gels, Novex NuPAGE, Thermo Scientific; 15 min at 50 V, about 1.5 h at 200 V using the recommended MOPS running buffer).

MAPKAPK3 [2] = biological target: T1, MAPKAPK3 (Homo sapiens, UniProt Q16644); assay: TPP-TR in living HL-60 cells; assay type: cell-based; conditions: 20 μM, single set (no replicates)
Description: as §1, §2, §3, §4
Target sequence in this assay (Q16644 whole entry): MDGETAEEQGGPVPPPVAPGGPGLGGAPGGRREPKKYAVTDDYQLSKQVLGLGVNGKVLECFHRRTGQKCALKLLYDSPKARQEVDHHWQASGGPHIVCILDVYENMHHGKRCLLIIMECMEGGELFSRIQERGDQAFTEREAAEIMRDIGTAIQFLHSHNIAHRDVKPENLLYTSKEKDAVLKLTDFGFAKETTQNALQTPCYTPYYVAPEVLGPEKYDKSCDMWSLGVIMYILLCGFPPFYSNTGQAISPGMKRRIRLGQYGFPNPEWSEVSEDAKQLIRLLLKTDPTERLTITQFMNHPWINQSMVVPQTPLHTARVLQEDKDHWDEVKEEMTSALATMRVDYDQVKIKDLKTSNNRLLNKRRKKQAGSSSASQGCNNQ

MYLK [3] = biological target: T2, MYLK (Homo sapiens, UniProt Q15746); assay: TPP-TR in living HL-60 cells; assay type: cell-based; conditions: 20 μM, single set (no replicates)
Description: as §1, §2, §3, §4
Target sequence in this assay (Q15746 whole entry): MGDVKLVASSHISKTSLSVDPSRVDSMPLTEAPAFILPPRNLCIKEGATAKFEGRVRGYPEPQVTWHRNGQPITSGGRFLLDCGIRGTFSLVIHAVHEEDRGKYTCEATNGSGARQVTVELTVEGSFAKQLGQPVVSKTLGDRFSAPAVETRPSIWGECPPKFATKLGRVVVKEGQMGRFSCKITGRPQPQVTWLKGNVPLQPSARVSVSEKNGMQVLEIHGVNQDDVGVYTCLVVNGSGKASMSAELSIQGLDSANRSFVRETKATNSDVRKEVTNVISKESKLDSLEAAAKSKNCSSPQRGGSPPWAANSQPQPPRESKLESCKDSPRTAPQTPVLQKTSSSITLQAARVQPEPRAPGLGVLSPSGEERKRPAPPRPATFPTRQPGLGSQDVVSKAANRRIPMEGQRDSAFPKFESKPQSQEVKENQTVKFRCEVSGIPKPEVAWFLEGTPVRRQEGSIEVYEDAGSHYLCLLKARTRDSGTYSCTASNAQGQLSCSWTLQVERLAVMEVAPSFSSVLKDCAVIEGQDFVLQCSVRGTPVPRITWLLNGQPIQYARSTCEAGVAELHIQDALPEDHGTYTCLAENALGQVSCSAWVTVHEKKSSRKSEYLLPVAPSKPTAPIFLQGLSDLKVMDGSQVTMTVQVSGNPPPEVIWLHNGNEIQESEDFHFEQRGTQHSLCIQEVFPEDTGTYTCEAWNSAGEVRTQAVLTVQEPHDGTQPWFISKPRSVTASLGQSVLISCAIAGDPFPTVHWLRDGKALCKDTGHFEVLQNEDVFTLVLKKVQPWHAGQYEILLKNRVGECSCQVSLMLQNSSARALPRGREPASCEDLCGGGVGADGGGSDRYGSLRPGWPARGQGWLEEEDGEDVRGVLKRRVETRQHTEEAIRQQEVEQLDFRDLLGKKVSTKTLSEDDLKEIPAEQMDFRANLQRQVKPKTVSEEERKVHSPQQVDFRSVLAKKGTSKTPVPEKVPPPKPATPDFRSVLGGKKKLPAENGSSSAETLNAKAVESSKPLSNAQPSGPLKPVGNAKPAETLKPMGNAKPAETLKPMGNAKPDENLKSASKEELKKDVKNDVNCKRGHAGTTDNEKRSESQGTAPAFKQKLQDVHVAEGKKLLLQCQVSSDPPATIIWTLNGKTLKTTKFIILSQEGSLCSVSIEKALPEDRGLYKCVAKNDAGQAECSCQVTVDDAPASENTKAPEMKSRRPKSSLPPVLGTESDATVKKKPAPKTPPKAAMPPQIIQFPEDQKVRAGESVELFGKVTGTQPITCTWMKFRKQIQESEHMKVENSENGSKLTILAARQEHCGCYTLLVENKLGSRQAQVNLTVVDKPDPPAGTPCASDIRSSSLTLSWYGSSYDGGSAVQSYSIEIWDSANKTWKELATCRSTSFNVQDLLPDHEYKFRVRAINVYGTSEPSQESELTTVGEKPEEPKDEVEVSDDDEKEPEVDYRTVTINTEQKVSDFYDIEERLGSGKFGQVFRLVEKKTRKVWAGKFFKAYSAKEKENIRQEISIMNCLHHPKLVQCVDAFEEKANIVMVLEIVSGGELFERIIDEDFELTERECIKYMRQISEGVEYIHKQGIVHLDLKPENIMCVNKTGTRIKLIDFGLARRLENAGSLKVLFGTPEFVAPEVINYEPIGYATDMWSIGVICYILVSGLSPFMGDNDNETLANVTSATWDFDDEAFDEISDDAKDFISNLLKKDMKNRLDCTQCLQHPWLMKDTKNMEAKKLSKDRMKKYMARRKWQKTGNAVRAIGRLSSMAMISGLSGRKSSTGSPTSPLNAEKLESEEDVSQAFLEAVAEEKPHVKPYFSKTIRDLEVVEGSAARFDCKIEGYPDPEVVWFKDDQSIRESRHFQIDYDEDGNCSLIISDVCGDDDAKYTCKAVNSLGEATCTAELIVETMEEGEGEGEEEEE

MAPK14 [4] = system: MAPK14; set-up: method as in Seashore-Ludlow et al., Biochemistry 2018; conditions: MAPK14 only, ref Seashore-Ludlow et al., Biochemistry 2018, cited from earlier work
MAPK14 [5] = biological target: MAPK14 (Homo sapiens, UniProt Q16539); assay: TPP-CCR in living HL-60 cells; conditions: […] °C, TMT-MS
MAPKAPK3 [6] = biological target: T1, MAPKAPK3; assay: TPP-CCR in living HL-60 cells; conditions: […] °C, TMT-MS
Target sequence in this assay (Q16644 whole entry): as the sequence (Q16644 whole entry) above
Target sequence in this assay (Q16539 2-360 partner limits assumed): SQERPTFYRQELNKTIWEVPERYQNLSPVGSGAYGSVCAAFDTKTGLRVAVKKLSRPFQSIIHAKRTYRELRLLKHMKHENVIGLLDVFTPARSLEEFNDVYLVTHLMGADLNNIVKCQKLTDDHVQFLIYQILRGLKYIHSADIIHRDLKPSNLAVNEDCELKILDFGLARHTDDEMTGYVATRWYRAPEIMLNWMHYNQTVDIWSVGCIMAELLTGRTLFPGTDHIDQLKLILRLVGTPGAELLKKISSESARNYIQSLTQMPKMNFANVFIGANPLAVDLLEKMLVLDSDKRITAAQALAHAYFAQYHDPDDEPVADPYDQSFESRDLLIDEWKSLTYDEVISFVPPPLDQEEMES

MYLK [7] = biological target: T2, MYLK; assay: TPP-CCR in living HL-60 cells
Target sequence in this assay (Q16539 2-360 partner limits assumed): as above
Target sequence in this assay (Q15746 whole entry): as the sequence (Q15746 whole entry) above

USP24 = USP24 (Homo sapiens, UniProt Q9UPU5); assay: TPP-CCR in living HL-60 cells
MARS = MARS (Homo sapiens, UniProt P56192); assay: TPP-CCR in living HL-60 cells
MAPK8 = system: MAPK8; set-up: method as in PMID 23398362; conditions: cited from earlier work
MYLK [8] = system: MYLK; set-up: method as in PMID 23398362; conditions: cited from earlier work
MAPKAPK2 [9] = system: MAPKAPK2; set-up: method as in PMID 23398362; conditions: cited from earlier work
MAPKAPK3 [10] = system: MAPKAPK3; set-up: method as in PMID 23398362; conditions: cited from earlier work
MAPKAPK2 [11] = system: MAPKAPK2; set-up: method as in PMID 22037378; conditions: cited from earlier work
WDR46 = WDR46 (Homo sapiens, UniProt O15213); assay: TPP-CCR in living HL-60 cells
[12] = living HL-60 cells, […] °C, TMT-MS

Sequence of MARS (P56192 whole entry): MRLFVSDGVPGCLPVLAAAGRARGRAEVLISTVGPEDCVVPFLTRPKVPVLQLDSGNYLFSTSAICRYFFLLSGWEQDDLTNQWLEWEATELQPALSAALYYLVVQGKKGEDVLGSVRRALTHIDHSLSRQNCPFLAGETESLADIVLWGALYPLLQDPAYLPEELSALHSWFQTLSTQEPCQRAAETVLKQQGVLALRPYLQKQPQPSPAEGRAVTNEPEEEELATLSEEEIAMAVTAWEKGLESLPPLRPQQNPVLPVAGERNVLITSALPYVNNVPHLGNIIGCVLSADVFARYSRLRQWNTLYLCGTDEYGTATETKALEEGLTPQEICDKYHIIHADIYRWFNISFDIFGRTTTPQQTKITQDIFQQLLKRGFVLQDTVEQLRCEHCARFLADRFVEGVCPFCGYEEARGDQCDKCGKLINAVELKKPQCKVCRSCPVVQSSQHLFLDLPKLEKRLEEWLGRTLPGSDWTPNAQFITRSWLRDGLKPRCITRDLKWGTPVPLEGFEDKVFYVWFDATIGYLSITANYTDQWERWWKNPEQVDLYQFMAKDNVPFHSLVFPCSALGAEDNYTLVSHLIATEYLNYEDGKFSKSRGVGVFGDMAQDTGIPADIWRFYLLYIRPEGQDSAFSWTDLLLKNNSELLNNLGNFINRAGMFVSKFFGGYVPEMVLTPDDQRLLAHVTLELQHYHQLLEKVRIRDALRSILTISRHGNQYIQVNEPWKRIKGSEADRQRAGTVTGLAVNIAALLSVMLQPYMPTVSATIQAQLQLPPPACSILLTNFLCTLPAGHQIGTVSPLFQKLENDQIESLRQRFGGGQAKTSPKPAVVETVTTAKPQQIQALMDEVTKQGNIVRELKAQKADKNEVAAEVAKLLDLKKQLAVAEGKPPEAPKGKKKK
Sequence of MAPKAPK2 (Homo sapiens, UniProt P49137) (P49137 whole entry): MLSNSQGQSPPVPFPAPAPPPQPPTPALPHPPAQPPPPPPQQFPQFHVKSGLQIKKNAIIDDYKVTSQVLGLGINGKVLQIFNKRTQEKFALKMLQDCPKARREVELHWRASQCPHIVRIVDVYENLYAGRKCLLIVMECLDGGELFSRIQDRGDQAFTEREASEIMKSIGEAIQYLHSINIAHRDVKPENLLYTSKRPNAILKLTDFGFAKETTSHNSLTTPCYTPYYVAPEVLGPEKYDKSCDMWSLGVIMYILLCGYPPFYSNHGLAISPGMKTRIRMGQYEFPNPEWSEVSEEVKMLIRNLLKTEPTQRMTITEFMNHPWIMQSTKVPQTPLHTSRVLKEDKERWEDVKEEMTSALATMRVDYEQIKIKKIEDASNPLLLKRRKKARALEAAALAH
Sequence of WDR46 (O15213 whole entry): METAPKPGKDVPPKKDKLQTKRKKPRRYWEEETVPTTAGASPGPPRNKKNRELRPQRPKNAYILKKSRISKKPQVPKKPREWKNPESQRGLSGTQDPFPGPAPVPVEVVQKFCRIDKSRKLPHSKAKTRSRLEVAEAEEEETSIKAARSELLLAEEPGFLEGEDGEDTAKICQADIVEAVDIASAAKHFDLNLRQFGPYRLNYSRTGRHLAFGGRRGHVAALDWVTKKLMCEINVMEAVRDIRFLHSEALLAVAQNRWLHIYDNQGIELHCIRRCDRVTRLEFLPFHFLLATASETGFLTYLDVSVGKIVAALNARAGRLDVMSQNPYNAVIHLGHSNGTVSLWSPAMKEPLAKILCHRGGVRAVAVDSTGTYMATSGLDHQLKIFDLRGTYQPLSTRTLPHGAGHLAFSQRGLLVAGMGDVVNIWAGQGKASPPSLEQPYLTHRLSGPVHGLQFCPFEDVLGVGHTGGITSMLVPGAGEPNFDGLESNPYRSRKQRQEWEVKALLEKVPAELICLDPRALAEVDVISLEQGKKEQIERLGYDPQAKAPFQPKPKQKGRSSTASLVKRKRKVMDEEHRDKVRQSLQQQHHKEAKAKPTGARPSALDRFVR
Sequence of MAPK14 (Homo sapiens, UniProt Q16539) (Q16539 whole entry): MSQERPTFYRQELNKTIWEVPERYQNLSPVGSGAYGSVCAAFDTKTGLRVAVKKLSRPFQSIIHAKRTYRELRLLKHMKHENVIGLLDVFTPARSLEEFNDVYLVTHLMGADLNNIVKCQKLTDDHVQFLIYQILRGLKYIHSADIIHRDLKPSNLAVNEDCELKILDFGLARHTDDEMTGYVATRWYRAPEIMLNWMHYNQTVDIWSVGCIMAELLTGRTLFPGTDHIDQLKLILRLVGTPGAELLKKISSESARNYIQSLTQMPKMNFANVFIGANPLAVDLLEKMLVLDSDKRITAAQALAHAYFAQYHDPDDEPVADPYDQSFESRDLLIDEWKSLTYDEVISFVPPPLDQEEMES

Row | SMILES | thermal stabilization in melting curves (MAPKAPK2) (MAPKAPK2 [1]) | thermal stabilization in melting curves (MAPKAPK3) (MAPKAPK3 [2]) | thermal stabilization in melting curves (MYLK) (MYLK [3]) | pEC50, Living cells (MAPK14 [4]; extrapolated to 50°C and extracted from figure 3b) | pEC50, Living cells (MAPK14 [4]; extrapolated to 51°C and extracted from figure 3b) | Hill slope (MAPK14) (MAPK14 [5]) | Hill slope (MAPKAPK3) (MAPKAPK3 [6]) | EC50 (MYLK [7]) [nM] | Hill slope (MYLK) (MYLK [7]; [12]) | EC50 (USP24) [nM] | Hill slope (USP24) (USP24; [12]) | EC50 (MARS) [nM] | Hill slope (MARS) (MARS; [12]) | activity against MAPK8 (MAPK8) | activity against MYLK (MYLK [8]) | activity against MAPKAPK2 (MAPKAPK2 [9]) | activity against MAPKAPK3 (MAPKAPK3 [10]) | activity towards MAPKAPK2 (MAPKAPK2 [11]) | EC50 (WDR46) [nM] | Hill slope (WDR46) (WDR46; [12])
1 | Cn1c(NC[C@@H](N)Cc2ccccc2)nc(-c2ccncc2)c(-c2ccc3ccccc3c2)c1=O [AMG-548] | thermal stabilizations | thermal stabilizations | thermal stabilizations | 8.57 | 8.23 | 0.57 | 0.68 | 6.03 | 0.44 | 2.69 | 0.71 | 209 | 0.40 |  |  |  |  |  |  | 
2 | C[S+]([O-])c1ccc(-c2nc(-c3ccncc3)c(-c3ccc(F)cc3)[nH]2)cc1 (centres unmarked) [SB203580] | thermal stabilizations | thermal stabilizations | thermal stabilizations |  |  |  |  |  |  |  |  |  |  | inactivity | inactivity | inactivity | inactivity | inactivity | 32.4 | 0.23

Reference: PMC9147192, “Small Molecule Arranged Thermal Proximity Coaggregation (smarTPCA)—A Novel Approach to Characterize Protein–Protein Interactions in Living Cells by Similar Isothermal Dose–Responses” (International Journal of Molecular Sciences, 2022)
